From US20260201008A1, “SECRETIN-DERIVED GLP1R SELECTIVE AGONISTS” (GUBRA A/S, priority 2023, published 2026)
Like-named read-outs stand apart in the source and are kept apart here. Numbered stars: 1 amine (or outer) side, 2 acyl side, 3 side chain; on linkers, the order of the positions; unused ones are H or OH. Square brackets hold non-standard residues; d marks the D form. Side chains are listed from the residue outwards. Peptide text beside a SMILES is read from it. * marks the point of attachment. C20 diacid = O=C(O)CCCCCCCCCCCCCCCCCCC(=O)*; γGlu = O=C(O)[C@H](CCC(=O)[*:2])N[*:1]; AEEA = NCCOCCOCC(=O)O; Aib = CC(C)(N)C(=O)O

Columns and labels:
[1] = target: GLP1R (Homo sapiens, UniProt P43220); assay: hGLP1R potency, cAMP accumulation in CHO-K1 cells stably overexpressing hGLP1R; format: cell-based; design: host or cells: CHO-K1; settings: for EC50: cAMP accumulation; for SCTR EC50/GLP1R EC50 ratio: cAMP accumulation in CHO-K1 cells; for Selectivity: SCTR EC50/GLP1R EC50 ratio
Summary of the method: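 In the presence of 0.5 mM IBMX, compounds stimulated the cells for 30 minutes at room temperature. Accumulated cAMP was then detected by TR-FRET, with EC50 values fitted by variable-slope nonlinear regression.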

[2] = Turbidity of crude library peptides (absorbance at 600 nm); format: physicochemical; settings: Physical stability of peptides
Summary of the method: (§1)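 Fibril formation is scored as average ThT fluorescence from duplicate samples monitored for 72 h at 40° C with shaking stress. Turbidity is the absorbance at 600 nm taken before heating. Peptide concentration was 267 μM at pH 4.0 or pH 7.0.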

[3] = target: SCTR (Homo sapiens, UniProt P47872); assay: hSCTR potency, cAMP accumulation in CHO-K1 cells stably overexpressing hSCTR; format: cell-based; design: alternatively Euroscreen ES-712-AF; FAST-0161L; host or cells: CHO-K1; settings: cAMP accumulation
Summary of the method: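 In this Gs cAMP assay, stably transfected CHO-K1 hSCTR cells were stimulated at room temperature for 30 min in IBMX-containing buffer. Time-resolved FRET gave the signal. Replicates were increased when the top concentration changed or EC50 values differed 5-fold.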

[4] = Fibril formation of crude library peptides (Thioflavin T); format: physicochemical; design: key: average ThT fluorescence emission at 480 nm (ex 450 nm), raw units; settings: Physical stability of peptides
Summary of the method: as §1

[5] = CHO-K1 cells overexpressing hGLP1R, read-out: hGLP1R pEC50 (converted)
[6] = selectivity for hGLP1R over hSCTR
[7] = CHO-K1 cells overexpressing hSCTR, read-out: hSCTR pEC50 (converted)
[8] = CHO-K1 cells overexpressing hGLP1R, read-out: pEC50 hGLPR1 (converted)
[9] = CHO-K1 cells overexpressing hSCTR, read-out: pEC50 hSCTR (converted)

GLP1R, sequence (P43220 24-463): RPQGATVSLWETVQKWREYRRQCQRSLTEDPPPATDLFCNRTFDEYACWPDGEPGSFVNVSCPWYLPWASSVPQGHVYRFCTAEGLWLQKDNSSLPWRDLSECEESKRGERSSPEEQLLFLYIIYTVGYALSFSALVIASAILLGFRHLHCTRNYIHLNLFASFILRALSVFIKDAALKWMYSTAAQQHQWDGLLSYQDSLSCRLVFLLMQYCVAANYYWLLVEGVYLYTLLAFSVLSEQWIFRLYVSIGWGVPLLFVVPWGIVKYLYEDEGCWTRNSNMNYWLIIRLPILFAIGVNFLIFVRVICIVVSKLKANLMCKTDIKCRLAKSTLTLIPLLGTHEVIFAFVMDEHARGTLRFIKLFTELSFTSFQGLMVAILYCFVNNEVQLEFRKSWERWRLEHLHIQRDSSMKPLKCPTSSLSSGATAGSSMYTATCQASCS
SCTR, sequence (P47872 23-440): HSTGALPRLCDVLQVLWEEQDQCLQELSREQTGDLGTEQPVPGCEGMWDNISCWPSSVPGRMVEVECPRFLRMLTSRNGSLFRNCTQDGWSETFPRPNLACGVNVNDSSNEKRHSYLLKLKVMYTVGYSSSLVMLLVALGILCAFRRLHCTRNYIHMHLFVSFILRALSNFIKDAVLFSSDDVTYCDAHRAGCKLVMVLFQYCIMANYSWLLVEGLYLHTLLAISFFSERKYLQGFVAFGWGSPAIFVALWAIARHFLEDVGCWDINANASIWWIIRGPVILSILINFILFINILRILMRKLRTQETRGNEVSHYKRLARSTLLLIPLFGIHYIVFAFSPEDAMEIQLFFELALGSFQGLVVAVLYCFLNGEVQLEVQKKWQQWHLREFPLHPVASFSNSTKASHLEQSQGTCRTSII

Row | EC50 ([1]; CHO-K1 cells stably overexpressing hGLP1R, read-out: hGLP1R potency (pEC50) (converted)) | SCTR EC50/GLP1R EC50 ratio ([1]; selectivity ratio, hSCTR vs hGLP1R) | Turbidity (pH 7) [2] | EC50 ([3]; CHO-K1 cells stably overexpressing hSCTR, read-out: hSCTR potency (pEC50) (converted)) | Fibril formation [4] | EC50 [1, 5] | SCTR EC50/GLP1R EC50 ratio [1, 6] | EC50 [3, 7] | Selectivity [1] | EC50 [1, 8] | EC50 [3, 9] | Structure (SMILES)
1 | 0.0251 nM | 223 | 0.46 | 5.01 nM | 260000 | – | – | – | – | – | – | CC[C@H](C)[C@H](NC(=O)[C@H](Cc1ccccc1)NC(=O)[C@H](CCCNC(=N)N)NC(=O)[C@H](CCC(N)=O)NC(=O)[C@H](CC(C)C)NC(=O)[C@H](C)NC(=O)[C@H](C)NC(=O)CNC(=O)[C@H](CCC(=O)O)NC(=O)[C@H](CC(C)C)NC(=O)[C@H](CC(C)C)NC(=O)[C@H](CCC(=O)O)NC(=O)[C@H](CO)NC(=O)[C@H](Cc1ccc(O)cc1)NC(=O)[C@H](CC(=O)O)NC(=O)[C@H](CO)NC(=O)[C@@H](NC(=O)[C@H](Cc1ccccc1)NC(=O)[C@@H](NC(=O)CNC(=O)[C@H](CCC(=O)O)NC(=O)C(C)(C)NC(=O)[C@@H](N)Cc1c[nH]cn1)[C@@H](C)O)[C@@H](C)O)C(=O)N[C@@H](CCC(N)=O)C(=O)N[C@@H](Cc1c[nH]c2ccccc12)C(=O)N[C@@H](CC(C)C)C(=O)N[C@H](C(N)=O)C(C)C [compound 199] (H-H[Aib]EGTFTSDYSELLEGAALQRFIQWLV-NH2)
2 | – | – | 0.08 | – | 3983 | 0.0126 nM | 3669 | 39.8 nM | – | – | – | CC(C)C[C@H](NC(=O)[C@H](Cc1ccccc1)NC(=O)[C@H](CCCNC(=N)N)NC(=O)[C@H](CCC(N)=O)NC(=O)[C@H](CC(C)C)NC(=O)C(C)(C)NC(=O)[C@H](C)NC(=O)[C@H](CCC(=O)O)NC(=O)[C@H](CCC(=O)O)NC(=O)[C@H](CCCCNC(=O)COCCOCCNC(=O)COCCOCCNC(=O)CC[C@H](NC(=O)CCCCCCCCCCCCCCCCCCC(=O)O)C(=O)O)NC(=O)[C@H](CC(C)C)NC(=O)C(C)(C)NC(=O)[C@H](CO)NC(=O)[C@@H](NC(=O)[C@H](CC(=O)O)NC(=O)[C@H](CO)NC(=O)[C@@H](NC(=O)[C@H](Cc1ccccc1)NC(=O)[C@@H](NC(=O)CNC(=O)[C@H](CCC(=O)O)NC(=O)C(C)(C)NC(=O)[C@@H](N)Cc1c[nH]cn1)[C@@H](C)O)[C@@H](C)O)C(C)C)C(=O)N[C@@H](CCC(=O)O)C(=O)N[C@@H](Cc1c[nH]cn1)C(=O)N[C@@H](CC(C)C)C(=O)N[C@H](C(N)=O)C(C)C [compound 163] (H-H[Aib]EGTFTSDVS[Aib]LK([AEEA-AEEA-γGlu-C20 diacid])EEA[Aib]LQRFLEHLV-NH2)
3 | – | – | 0.09 | – | 9044 | – | – | – | 201002 | 0.0501 nM | 10000 nM | CC(C)C[C@H](NC(=O)[C@H](Cc1ccccc1)NC(=O)[C@H](CCCNC(=N)N)NC(=O)[C@H](CCC(N)=O)NC(=O)[C@H](C)NC(=O)[C@H](C)NC(=O)[C@H](C)NC(=O)[C@H](CCC(=O)O)NC(=O)[C@H](CCC(=O)O)NC(=O)[C@H](CCCCNC(=O)COCCOCCNC(=O)COCCOCCNC(=O)CC[C@H](NC(=O)CCCCCCCCCCCCCCCCCCC(=O)O)C(=O)O)NC(=O)[C@H](CC(C)C)NC(=O)[C@H](Cc1ccccc1)NC(=O)[C@H](CO)NC(=O)[C@@H](NC(=O)[C@H](CC(=O)O)NC(=O)[C@H](CO)NC(=O)[C@@H](NC(=O)[C@H](Cc1ccccc1)NC(=O)[C@@H](NC(=O)CNC(=O)[C@H](CCC(=O)O)NC(=O)C(C)(C)NC(=O)[C@@H](N)Cc1c[nH]cn1)[C@@H](C)O)[C@@H](C)O)C(C)C)C(=O)N[C@@H](CCC(=O)O)C(=O)N[C@@H](Cc1c[nH]cn1)C(=O)N[C@@H](CC(C)C)C(=O)N[C@H](C(N)=O)C(C)C [compound 63] (H-H[Aib]EGTFTSDVSFLK([AEEA-AEEA-γGlu-C20 diacid])EEAAAQRFLEHLV-NH2)
4 | – | – | 0.23 | – | 4449 | 0.0501 nM | 3717 | 200 nM | – | – | – | CC[C@H](C)[C@H](NC(=O)[C@H](CC(=O)O)NC(=O)[C@H](CO)NC(=O)[C@@H](NC(=O)[C@H](Cc1ccccc1)NC(=O)[C@@H](NC(=O)CNC(=O)[C@H](CCC(=O)O)NC(=O)C(C)(C)NC(=O)[C@@H](N)Cc1c[nH]cn1)[C@@H](C)O)[C@@H](C)O)C(=O)N[C@@H](CO)C(=O)NCC(=O)N[C@@H](CC(C)C)C(=O)N[C@@H](CC(C)C)C(=O)N[C@@H](CCC(=O)O)C(=O)NCC(=O)N[C@@H](C)C(=O)N[C@@H](C)C(=O)N[C@@H](CC(C)C)C(=O)N[C@@H](CCC(N)=O)C(=O)N[C@@H](CCCNC(=N)N)C(=O)N[C@@H](Cc1ccccc1)C(=O)N[C@H](C(=O)N[C@@H](CCC(N)=O)C(=O)N[C@@H](Cc1c[nH]c2ccccc12)C(=O)N[C@@H](CC(C)C)C(=O)N[C@H](C(N)=O)C(C)C)[C@@H](C)CC [compound 120] (H-H[Aib]EGTFTSDISGLLEGAALQRFIQWLV-NH2)
5 | – | – | 0.17 | – | 87225 | 0.0158 nM | 52372 | 794 nM | – | – | – | CC(C)C[C@H](NC(=O)[C@H](CCC(=O)O)NC(=O)[C@H](CCCCNC(=O)COCCOCCNC(=O)COCCOCCNC(=O)CC[C@H](NC(=O)CCCCCCCCCCCCCCCCCCC(=O)O)C(=O)O)NC(=O)[C@H](CC(C)C)NC(=O)[C@H](CCC(=O)O)NC(=O)[C@H](CO)NC(=O)[C@@H](NC(=O)[C@H](CC(=O)O)NC(=O)[C@H](CO)NC(=O)[C@@H](NC(=O)[C@H](Cc1ccccc1)NC(=O)[C@@H](NC(=O)CNC(=O)[C@H](CCC(=O)O)NC(=O)C(C)(C)NC(=O)[C@@H](N)Cc1c[nH]cn1)[C@@H](C)O)[C@@H](C)O)C(C)C)C(=O)N[C@@H](C)C(=O)N[C@@H](C)C(=O)N[C@@H](CCC(N)=O)C(=O)N[C@@H](CCC(N)=O)C(=O)N[C@@H](CCCNC(=N)N)C(=O)N[C@@H](Cc1ccccc1)C(=O)N[C@@H](CC(C)C)C(=O)N[C@@H](CCC(=O)O)C(=O)N[C@@H](Cc1c[nH]cn1)C(=O)N[C@@H](CC(C)C)C(=O)N[C@H](C(N)=O)C(C)C [compound 99] (H-H[Aib]EGTFTSDVSELK([AEEA-AEEA-γGlu-C20 diacid])ELAAQQRFLEHLV-NH2)
6 | – | – | 0.08 | – | 8261 | – | – | – | 43142 | 0.0158 nM | 794 nM | CC(C)C[C@H](NC(=O)[C@H](Cc1ccccc1)NC(=O)[C@H](CCCNC(=N)N)NC(=O)[C@H](CCC(N)=O)NC(=O)C(C)(C)NC(=O)[C@H](C)NC(=O)[C@H](C)NC(=O)[C@H](CCC(=O)O)NC(=O)[C@H](CCC(=O)O)NC(=O)[C@H](CCCCNC(=O)COCCOCCNC(=O)COCCOCCNC(=O)CC[C@H](NC(=O)CCCCCCCCCCCCCCCCCCC(=O)O)C(=O)O)NC(=O)[C@H](CC(C)C)NC(=O)[C@@H](NC(=O)[C@H](CO)NC(=O)[C@@H](NC(=O)[C@H](CC(=O)O)NC(=O)[C@H](CO)NC(=O)[C@@H](NC(=O)[C@H](Cc1ccccc1)NC(=O)[C@@H](NC(=O)CNC(=O)[C@H](CCC(=O)O)NC(=O)C(C)(C)NC(=O)[C@@H](N)Cc1c[nH]cn1)[C@@H](C)O)[C@@H](C)O)C(C)C)C(C)C)C(=O)N[C@@H](CCC(=O)O)C(=O)N[C@@H](Cc1c[nH]cn1)C(=O)N[C@@H](CC(C)C)C(=O)N[C@H](C(N)=O)C(C)C [compound 35] (H-H[Aib]EGTFTSDVSVLK([AEEA-AEEA-γGlu-C20 diacid])EEAA[Aib]QRFLEHLV-NH2)
